Tested on: zebrafish embryos
Experiment: Zebrafish embryo model of EMT inhibition
Format: in vivo
Details: 100 μM DAPT dissolved in the medium, 32-hpf embryos
Protocol: The necessary embryos to develop the study were obtained and kept at 28.5° C. in the incubator until the treatment was to begin (24 hpf and 32 hpf). The embryos were dechorionated at 24 hpf and deposited on a Petri dish with E3 medium. Prior to injecting the product, the fish were treated with 0.04% tricaine and, once they were asleep, they were placed on an agarose plate with a number of wedge-shaped grooves, where the embryos were aligned and immobilised in order to be injected. The mixture of the assay product to be injected was loaded in the injection capillary and a volume of 15 nl was injected in the perivitelline space. 20 embryos were injected per condition. […] These were deposited in 24-well plates (5 embryos per well) in 0.5 ml of E3 medium without methylene blue or antibiotic, and incubated at 28.5° C. until they were to be analyzed. As a control, embryos were injected with HBSS +0.5% rhodamine-dextran. […]
The embryos were analyzed at 53, 72 and 96 hpf, and the presence of the following phenotypes was searched for in each of the embryos used in the study: • alteration of the somite bonds (somite boundaries). • morphological alterations of the embryos in general. • appearance of edemas in the pericardial area. • morphological alterations in the heart, as well as alterations in blood circulation and alterations in the formation of the vascular system.

C[C@H](NC(=O)Cc1cc(F)cc(F)c1)C(=O)N[C@H](C(=O)OC(C)(C)C)c1ccccc1 [DAPT]
phenotype of positive control: appearance of pericardial edemas, alterations of the somite bonds, and alteration or absence of blood circulation

Source: US20120220546A1, “COMPOSTIONS DESIGNED FOR THE INHIBITION AND/OR BLOCKING OF THE EPITHELIAL/MESENCHYMAL TRANSITION” (priority 2009, published 2012)
